Here are results for six compounds from patent EP1369114A1, “Use of tryptophan metabolites as pharmaceutical agents” (Terness, Peter, Priv. Doz. Dr., priority 2002, dated 2003).

Format in all cases: cell-based, human
One experiment concerns CD3-stimulated T cells. The experiment can be described thus: CD3 stimulation of T cells: metabolite titration curves, 3[H]-thymidin incorporation. The settings on record: anti-CD3 antibody, 3 days. An excerpt:
• (a) Allogeneic T-cell response. DCs were infected with recombinant IDO-adeno-GFP (DC-IDO-GFP), IDO-adeno (DC-IDO) or with control adenoviruses (DC-adeno) at a MOI (multiplicity of infection) up to 500 for 2 days. Lymphocytes (PBMCs) were separated from peripheral blood of healthy donors by density gradient centrifugation and typed for HLA antigens. Only HLA-DR-different responder lymphocytes were used for DC-induced stimulation. Native DCs only, lymphocytes only, native DCs + allogeneic lymphocytes, DC-IDO-GFP + allogeneic lymphoytes, DC-IDO + allogeneic lymphoytes, DC-adeno + allogeneic lymphocytes (each time 10^5 DC + 10^5 lymphocytes in 0.2ml medium) were cultured in RPMI 1640 medium (Gibco BRL Life Technologies GmbH, Eggenstein, Germany) with 10% fetal calf serum (FCS) (final tryptophan concentration 5.25 mg/l = 25.69 uM) and Penicillin G/Streptomycin. […] In order to verify whether IDO expression or adenovirus infection harm the DCs, 10^5 cells were infected with IDO-adeno-GFP, IDO-adenovirus, or adenovirus only at a stepwise decreasing MOI (500, 250, 125, ........ 3.9) and cell viability was measured in FACS following double staining with 7-AAD and anti-CD83 antibody-PE. The percentage of dead cells never exceeded 30% for any MOI following IDO-adeno-GFP- or IDO-adeno-infection and 40% following adenovirus(control)-infection. Moreover, these values were not higher than those of native DCs cultured for the same period of time. The experiment was repeated using ethidium bromide or trypan blue staining with virtually the same result. […] Peripheral blood lymphocytes were cultured (10^5 cells/well) in RPMI 1640 (10% FCS) with anti CD3 monoclonal antibody (Ortho Diagnostic Systems Inc., Raritan, NJ) (final dilution 1:200). […] Kynurenine, 3-hydroxykynurenine, anthranilic acid, 3-hydroxyanthranilic acid, and quinolinic acid (Sigma-Aldrich Chemie GmbH, Taufkirchen, Germany)(for all substances purity>98%) were dissolved in RPMI 1640 and added to cell cultures at various concentrations. In an other experiment, to determine whether the metabolites have an additive effect, equal concentrations of the compounds were mixed and added to the cultures. […] Positive controls consisted of CD3-stimulated cells without metabolites and negative controls of unstimulated cells. • (d) Restimulation of suppressed T cells. Lymphocytes (10^5 cells/well) were cultured in RPMI 1640 (10% FCS) with anti-CD3 monoclonal antibody (final dilution 1:200) and kynurenine (dilution series). […] Controls consisted of cells prestimulated with anti-CD3 but not pretreated with kynurenine. In an other restimulation experiment lymphocytes were stimulated with allogeneic DCs as described, in the presence (47-1500µM) or absence of kynurenine. Control cultures contained DCs or lymphocytes only. After 5 days the cells were extensively washed, and restimulated with an identical number of DCs derived from the same donor or from third party donors. […] In order to define the concentration of tryptophan which reduces T- lymphocyte proliferation in our test system, 10^5 lymphocytes were incubated in tryptophan-free RPMI 1640 medium (Gibco BRL Life Technologies) with or without 10% FCS, stimulated with anti-CD3 monoclonal antibody, and various amounts (0-38µM) of tryptophan were added. Unimpaired proliferation was observed down to 0.30µM (medium with FCS) and 1 .20µM (without FCS). Complete inhibition was not obtained at any concentration (positive control 100% proliferation; maximal suppression in medium with FCS: approx. 66% and without FCS: approx. 33%). All cell cultures were done in triplicate.
All tests were carried out in triplicate and results are given as mean +standard deviation. […] Thereafter, the concentration of substance giving 50% proliferation was calculated by regression.

The next experiment relates to T cells. The experiment can be described thus: Detection of cell death: 7-AAD staining of anti-CD3 stimulated lymphocytes, FACScan. The settings on record: anti-CD3, 3 days; 1501 µM kynurenine, 349µM 3-hydroxykynurenine, 510µM 3-hydroxyanthranilic acid, mixture 64 µM of each compound. As for the experimental part: Lymphocytes were stimulated in culture with anti-CD3 monoclonal antibody (s. above) in the presence or absence (control) of kynurenine (1501µM), 3-hydroxyanthranilic acid (510µM), 3-hydroxykynurenine (348µM), or metabolite mixture (64µM kynurenine + 64µM 3-hydroxykynurenine + 64µM anthranilic acid + 64µM 3-hydroxyanthranilic acid + […] quinolinic acid). After 3 days the cells were washed and resuspended in PBS (10^6/ml). Thereafter, the cells (100µ1 suspension) were labeled with anti-CD3-FITC antibody (3 µl), stained with 7-AAD (5µl) for 15 min, and the percentage of 7-AAD-positive (dead) T cells was determined in a FACScan. In an other experiment T cells, B cells, NK-cells, or DCs were separated from PBMCs by magnetic beads or generated as described, and cultured (5x10^5 cells/ml) with a mixture of kynurenine metabolites (kynurenine + 3-hydroxykynurenine + anthranilic acid + 3-hydroxyanthranilic acid + quinolinic acid)(8, 16, or 32µM respectively for each compound). In one setting T cells were activated with anti-CD3 antibody. Cell death was measured daily for 5 days by 7-AAD staining and expressed in percentage of dead cells.

Experiment [1] deals with T cells stimulated by allogeneic DCs. In words: Allogeneic T-cell response: lymphocyte proliferation induced by allogeneic dendritic cells, 3[H]-thymidin incorporation. The settings on record: 6 days. An excerpt:
DCs were generated from CD14-positive blood monocytes as previously described ("Schuler G. and N. Romani", 1997, Adv. Exp. Med. Biol. 417:7-13). Briefly, peripheral blood mononuclear cells of an HLA-typed healthy donor were separated by density gradient centrifugation and CD14-positive monocytes were isolated by adherence to culture dishes. Non-adherent cells were discarded. After culture of monocytes in the presence of human rGM-CSF (666 Units/ml) and rIL-4 (1000 Units/ml) for 7 days, rTNF-α (10 ng/ml) was added for an additional 2 days to induce maturation of DC. Characterization of DC phenotype was performed by flow cytometry using the following mouse monoclonal antibodies: anti-CD 14-FITC, anti-HLA-DR-FITC, anti-CD 1a-PE, anti-CD86-PE, and anti-CD83-PE (BD Biosciences Heidelberg, Germany). DCs were kept in liquid nitrogen until use.
• (a) Allogeneic T-cell response. DCs were infected with recombinant IDO-adeno-GFP (DC-IDO-GFP), IDO-adeno (DC-IDO) or with control adenoviruses (DC-adeno) at a MOI (multiplicity of infection) up to 500 for 2 days. […] After 5 days, ^3[H]-thymidin was added for 12hrs and the number of counts (counts per minute = cpm) determined in a (3-counter (Inotech Biosystems, Lansing, MI). In order to verify whether IDO expression or adenovirus infection harm the DCs, 10^5 cells were infected with IDO-adeno-GFP, IDO-adenovirus, or adenovirus only at a stepwise decreasing MOI (500, 250, 125, ........ 3.9) and cell viability was measured in FACS following double staining with 7-AAD and anti-CD83 antibody-PE. The percentage of dead cells never exceeded 30% for any MOI following IDO-adeno-GFP- or IDO-adeno-infection and 40% following adenovirus(control)-infection. […] After 2 days, cell proliferation was assessed by measuring ^3[H]-thymidin incorporation (cpm) as described. • (c) Tryptophan metabolite titration curves. […] After 2 days, ^3[H] thymidin was added and the number of counts recorded. […] After another 2 days, ^3[H] thymidin was added and cpm determined. […]

Experiment [2] deals with T- lymphocyte proliferation. In words: Tryptophan titration curve: proliferation of anti-CD3 stimulated lymphocytes in tryptophan-free medium. The settings on record: for maximal suppression: positive control 100% proliferation. An excerpt: • (a) Allogeneic T-cell response. DCs were infected with recombinant IDO-adeno-GFP (DC-IDO-GFP), IDO-adeno (DC-IDO) or with control adenoviruses (DC-adeno) at a MOI (multiplicity of infection) up to 500 for 2 days. Lymphocytes (PBMCs) were separated from peripheral blood of healthy donors by density gradient centrifugation and typed for HLA antigens. Only HLA-DR-different responder lymphocytes were used for DC-induced stimulation. Native DCs only, lymphocytes only, native DCs + allogeneic lymphocytes, DC-IDO-GFP + allogeneic lymphoytes, DC-IDO + allogeneic lymphoytes, DC-adeno + allogeneic lymphocytes (each time 10^5 DC + 10^5 lymphocytes in 0.2ml medium) were cultured in RPMI 1640 medium (Gibco BRL Life Technologies GmbH, Eggenstein, Germany) with 10% fetal calf serum (FCS) (final tryptophan concentration 5.25 mg/l = 25.69 uM) and Penicillin G/Streptomycin. After 5 days, ^3[H]-thymidin was added for 12hrs and the number of counts (counts per minute = cpm) determined in a (3-counter (Inotech Biosystems, Lansing, MI). In order to verify whether IDO expression or adenovirus infection harm the DCs, 10^5 cells were infected with IDO-adeno-GFP, IDO-adenovirus, or adenovirus only at a stepwise decreasing MOI (500, 250, 125, ........ 3.9) and cell viability was measured in FACS following double staining with 7-AAD and anti-CD83 antibody-PE. The percentage of dead cells never exceeded 30% for any MOI following IDO-adeno-GFP- or IDO-adeno-infection and 40% following adenovirus(control)-infection. Moreover, these values were not higher than those of native DCs cultured for the same period of time. […] After 2 days, cell proliferation was assessed by measuring ^3[H]-thymidin incorporation (cpm) as described. • (c) Tryptophan metabolite titration curves. […] After 2 days, ^3[H] thymidin was added and the number of counts recorded. […] After another 2 days, ^3[H] thymidin was added and cpm determined. […] 3[H] thymidin was added to all cultures and the number of counts (cpm) determined. • (e) Tryptophan titration curve. […]

`Nc1c(O)cccc1C(=O)O` [3-hydroxyanthranilic acid]: the IC50 in the experiment with CD3-stimulated T cells (Homo sapiens, T-cell, 72 h, single substance, read-out: I50 of proliferation of CD3-stimulated T cells) came to 96 µM. For the same compound, the “suppression of T cell response (in words)” value (“suppression … (in words)” for short) with CD3-stimulated T cells was “strongly suppress T cells”. Further, the “dead (7-AAD-positive) T cells (in words)” value in the experiment on T cells is “virtually all cells died”.

For `Nc1ccccc1C(=O)C[C@@H](N)C(=O)O` [D-kynurenine], the “suppression … (in words)” value in the experiment with CD3-stimulated T cells was “The same effect was noted”. Moreover, in experiment [1], the “inhibition of proliferation of T cells stimulated by allogeneic DCs (in words)” value is “The same effect was noted”. In the case of `NC(CC(=O)c1ccccc1NC=O)C(=O)O` (centres unmarked) [N-formylkynurenine], in the experiment with CD3-stimulated T cells, the “suppression … (in words)” value is “Suppression of T-cell response can also be achieved”. The same measure, in the same setting: the value for `Nc1ccccc1C(=O)O` [anthranilic acid] was “suppressive but at higher concentrations”. As for `O=C(O)c1cccnc1C(=O)O` [quinolinic acid], the “suppression … (in words)” value in the experiment with CD3-stimulated T cells is given as “suppressive but at higher concentrations”. Consider `N[C@@H](Cc1c[nH]c2ccccc12)C(=O)O` [tryptophan], for which, in experiment [2] (medium with FCS), the “lowest tryptophan concentration with unimpaired proliferation” value is on record as 0.30 µM and the maximal suppression result is reported as “approx. 66%”. Moreover, the maximal suppression result in experiment [2] (medium without FCS) was “approx. 33%”.
